Species: Rattus norvegicus
Assay: DrugMatrix - Regimen: Daily Repeat
Assay type: toxicity, organism-based, Sprague-Dawley
Design: regimen Daily Repeat, gender Male, age 6-8 weeks
Details: in vivo, po, route oral GAVAGE, vehicle 100 % WATER; for URIC ACID / ALANINE AMINOTRANSFERASE / ALKALINE PHOSPHATASE / ASPARTATE AMINOTRANSFERASE / BLOOD UREA NITROGEN / CARBON DIOXIDE / CHLORIDE / CHOLESTEROL / CREATINE PHOSPHOKINASE / CREATININE / GLUCOSE / LACTATE DEHYDROGENASE / LIPASE / PHOSPHORUS / POTASSIUM / SODIUM / TOTAL BILIRUBIN / TOTAL PROTEIN: tissue Plasma; for ABSOLUTE BASOPHIL / ABSOLUTE EOSINOPHIL / ABSOLUTE LYMPHOCYTE / ABSOLUTE MONOCYTE / ABSOLUTE SEGMENTED NEUTROPHIL / BASOPHIL / EOSINOPHIL / ERYTHROCYTE COUNT / HEMATOCRIT / HEMOGLOBIN / LEUKOCYTE COUNT / LYMPHOCYTE / MEAN CORPUSCULAR HEMOGLOBIN / MEAN CORPUSCULAR HEMOGLOBIN CONCENTRATION / MEAN CORPUSCULAR VOLUME / MONOCYTE / NEUTROPHIL / NUCLEATED RED BLOOD CELLS: tissue Blood
[1] = 18 mg/kg, 120 h, dose level Low, time 5 day
[2] = 73 mg/kg, 72 h, dose level High, time 3 day
[3] = 73 mg/kg, 120 h, dose level High, time 5 day

CN(C)CCCN1c2ccccc2Sc2ccc(Cl)cc21 [CHLORPROMAZINE]
URIC ACID (18 mg/kg, 72 h, dose level Low, time 3 day): 0.4 mg/dL | ABSOLUTE BASOPHIL [1]: 0 CELLS/uL | ABSOLUTE EOSINOPHIL [1]: 76 CELLS/uL | ABSOLUTE LYMPHOCYTE [1]: 7709.67 CELLS/uL | ABSOLUTE MONOCYTE [1]: 216 CELLS/uL | ABSOLUTE SEGMENTED NEUTROPHIL [1]: 898.33 CELLS/uL | BASOPHIL [1]: 0% | EOSINOPHIL [1]: 0.67% | ERYTHROCYTE COUNT [1]: 5.62 x10E6/uL | HEMATOCRIT [1]: 36.23% | HEMOGLOBIN [1]: 13.87 G/DL | LEUKOCYTE COUNT [1]: 8.9 x10E3/uL | LYMPHOCYTE [1]: 87% | MEAN CORPUSCULAR HEMOGLOBIN [1]: 24.7 pg | MEAN CORPUSCULAR HEMOGLOBIN CONCENTRATION [1]: 38.27 G/DL | MEAN CORPUSCULAR VOLUME [1]: 64.5 fL | MONOCYTE [1]: 2.33% | NEUTROPHIL [1]: 10% | NUCLEATED RED BLOOD CELLS [1]: 0 /100WBC | ALANINE AMINOTRANSFERASE [1]: 54.67 u/L | ALKALINE PHOSPHATASE [1]: 255.67 u/L | ASPARTATE AMINOTRANSFERASE [1]: 80.33 u/L | BLOOD UREA NITROGEN [1]: 14.33 mg/dL | CARBON DIOXIDE [1]: 29.33 mmol/L | CHLORIDE [1]: 102.33 MEQ/L | CHOLESTEROL [1]: 84.67 mg/dL | CREATINE PHOSPHOKINASE [1]: 218.67 u/L | CREATININE [1]: 0.12 mg/dL | GLUCOSE [1]: 141.33 mg/dL | LACTATE DEHYDROGENASE [1]: 69.67 u/L | LIPASE [1]: 9 u/L | PHOSPHORUS [1]: 11.6 mg/dL | POTASSIUM [1]: 5.95 MEQ/L | SODIUM [1]: 145.57 MEQ/L | TOTAL BILIRUBIN [1]: 0.13 mg/dL | URIC ACID [1]: 0.6 mg/dL | ABSOLUTE BASOPHIL [2]: 0 CELLS/uL | ABSOLUTE EOSINOPHIL [2]: 0 CELLS/uL | ABSOLUTE LYMPHOCYTE [2]: 7383 CELLS/uL | ABSOLUTE MONOCYTE [2]: 208 CELLS/uL | ABSOLUTE SEGMENTED NEUTROPHIL [2]: 342.33 CELLS/uL | BASOPHIL [2]: 0% | EOSINOPHIL [2]: 0% | ERYTHROCYTE COUNT [2]: 5.6 x10E6/uL | HEMATOCRIT [2]: 35.37% | HEMOGLOBIN [2]: 13.77 G/DL | LEUKOCYTE COUNT [2]: 7.93 x10E3/uL | LYMPHOCYTE [2]: 92.33% | MEAN CORPUSCULAR HEMOGLOBIN [2]: 24.63 pg | MEAN CORPUSCULAR HEMOGLOBIN CONCENTRATION [2]: 38.93 G/DL | MEAN CORPUSCULAR VOLUME [2]: 63.17 fL | MONOCYTE [2]: 3% | NEUTROPHIL [2]: 4.67% | NUCLEATED RED BLOOD CELLS [2]: 0 /100WBC | ALANINE AMINOTRANSFERASE [2]: 56 u/L | ALKALINE PHOSPHATASE [2]: 291.33 u/L | ASPARTATE AMINOTRANSFERASE [2]: 84 u/L | BLOOD UREA NITROGEN [2]: 14.33 mg/dL | CARBON DIOXIDE [2]: 37.67 mmol/L | CHLORIDE [2]: 101 MEQ/L | CHOLESTEROL [2]: 99 mg/dL | CREATINE PHOSPHOKINASE [2]: 176.33 u/L | CREATININE [2]: 0.27 mg/dL | GLUCOSE [2]: 154.67 mg/dL | LACTATE DEHYDROGENASE [2]: 52.67 u/L | LIPASE [2]: 12 u/L | PHOSPHORUS [2]: 8.2 mg/dL | POTASSIUM [2]: 5.02 MEQ/L | SODIUM [2]: 145.37 MEQ/L | TOTAL BILIRUBIN [2]: 0.13 mg/dL | TOTAL PROTEIN [2]: 5.7 G/DL | URIC ACID [2]: 0.4 mg/dL | ABSOLUTE BASOPHIL [3]: 0 CELLS/uL | ABSOLUTE EOSINOPHIL [3]: 148.67 CELLS/uL | ABSOLUTE LYMPHOCYTE [3]: 10432 CELLS/uL | ABSOLUTE MONOCYTE [3]: 268.67 CELLS/uL | ABSOLUTE SEGMENTED NEUTROPHIL [3]: 584 CELLS/uL | BASOPHIL [3]: 0% | EOSINOPHIL [3]: 1.33% | ERYTHROCYTE COUNT [3]: 6.19 x10E6/uL | HEMATOCRIT [3]: 38.2% | HEMOGLOBIN [3]: 14.83 G/DL | LEUKOCYTE COUNT [3]: 11.43 x10E3/uL | LYMPHOCYTE [3]: 91% | MEAN CORPUSCULAR HEMOGLOBIN [3]: 23.93 pg | MEAN CORPUSCULAR HEMOGLOBIN CONCENTRATION [3]: 38.87 G/DL | MEAN CORPUSCULAR VOLUME [3]: 61.63 fL | MONOCYTE [3]: 2.33% | NEUTROPHIL [3]: 5.33% | NUCLEATED RED BLOOD CELLS [3]: 0 /100WBC | ALANINE AMINOTRANSFERASE [3]: 61.67 u/L | ALKALINE PHOSPHATASE [3]: 321.67 u/L | ASPARTATE AMINOTRANSFERASE [3]: 110.67 u/L | BLOOD UREA NITROGEN [3]: 24.67 mg/dL | CARBON DIOXIDE [3]: 27.67 mmol/L | CHLORIDE [3]: 103.33 MEQ/L | CHOLESTEROL [3]: 87.33 mg/dL | CREATINE PHOSPHOKINASE [3]: 231.67 u/L | CREATININE [3]: 0.25 mg/dL | GLUCOSE [3]: 142.33 mg/dL | LACTATE DEHYDROGENASE [3]: 88.67 u/L | LIPASE [3]: 10.33 u/L | PHOSPHORUS [3]: 9.27 mg/dL | POTASSIUM [3]: 5.11 MEQ/L | SODIUM [3]: 145.67 MEQ/L | TOTAL BILIRUBIN [3]: 0.17 mg/dL | TOTAL PROTEIN [3]: 6.07 G/DL | URIC ACID [3]: 0.43 mg/dL
